Marks after values point to notes of the source that are not given here.
Columns and labels:
Assay type in all cases: in vivo, human
[1] = system: hepatic proton density fat fraction (PDFF); assay: Hepatic fat by MRI-PDFF, proof of concept study in subjects with NASH; settings: for PDFF compared with BL (in words): 12 weeks; for MRI-PDFF, median relative (%) change from BL / ≥30% reduction in MRI-PDFF, % of subjects: W12, orally QD for 12 weeks
Protocol: (§1) 70 subjects with NASH diagnosed by a hepatic proton density fat fraction (PDFF) ≥10% and liver stiffness ≥2.88 kPa by MRE, or liver biopsy consistent with NASH and stage 2-3 fibrosis were enrolled. Successive cohorts received monotherapy with Formula (II) 18 mg, Formula (VII) 20 mg, or Formula (V) 30 mg (n=10/cohort), or combination therapy with Formula (II)+Formula (VII) (18/20 mg) or Formula (II)+Formula (V) (18/30 mg) (n=20/cohort) orally QD for 12 weeks. Centrally-read PDFF and MRE, and serum fibrosis markers were measured at baseline (BL), W4 and W12. Deuterated water was administered to measure fractional synthesis of lipids (de novo lipogenesis [DNL]) and fibrosis-related markers (data are pending).

[2] = system: liver stiffness; assay: Liver stiffness by MRE, proof of concept study in subjects with NASH; settings: W12, orally QD for 12 weeks
Protocol: as §1

[3] = system: ALT, GGT; assay: Liver biochemistry (ALT, GGT), proof of concept study in subjects with NASH; settings: for ALT, median relative (%) change from BL / GGT, median relative (%) change from BL: W12, orally QD for 12 weeks
Protocol: as §1

[4] = system: TIMP-1, PIII-NP; assay: Serum fibrosis markers (TIMP-1, PIII-NP), proof of concept study in subjects with NASH; settings: for PIII-NP, median relative (%) change from BL / TIMP-1, median relative (%) change from BL: serum, W12, orally QD for 12 weeks
Protocol: as §1

[5] = Safety (AEs), proof of concept study in subjects with NASH; settings: over 12 weeks, orally QD
Protocol: as §1

Compound | PDFF compared with BL (in words) [1] | MRI-PDFF, median relative (%) change from BL [1] | ≥30% reduction in MRI-PDFF, % of subjects [1] [%] | MRE, median relative (%) change from BL [2] [%] | ALT compared with BL (in words) ([3]; 12 weeks) | ALT, median relative (%) change from BL [3] [%] | GGT, median relative (%) change from BL [3] | PIII-NP compared with BL (in words) ([4]; 12 weeks) | TIMP-1 compared with BL (in words) ([4]; 12 weeks) | PIII-NP, median relative (%) change from BL [4] [%] | TIMP-1, median relative (%) change from BL [4] | Grade 2 or higher AE, % of subjects [5] [%] | GGT compared with BL (in words) ([3]; 12 weeks)
Cc1cc(F)c(C(=O)Nc2cccc(-c3nncn3[C@@H](C)CF)n2)cc1-n1cnc(C2CC2)c1 [Formula (VII)] | significant improvements | −42.7* % | 70 | −8.9 | non-significant reductions | −33.5 | −1.6% | non-significant reductions | significant improvements | −11.9 | −11.6* % | 40 | –
O=C(O)c1ccnc(N2CC(O)(c3ccc(OCc4c(-c5c(Cl)cccc5Cl)noc4C4CC4)cc3Cl)C2)c1 [Formula (V)] | reduced | −15.6* % | 0 | −8.3 | reduced | −29.7 | −19.3* % | – | – | 8.8 | 6.6* % | 40 | reduced
Cc1cc(F)c(C(=O)Nc2cccc(-c3nncn3C(C)C)n2)cc1-n1cnc(C2CC2)c1 [Formula (II)] | – | 7.1% | 10 | −8.6 | – | −1.2 | −4.4% | – | – | −8.7 | 2.6% | 40 | –

Source: US20180333401A1, “METHODS OF TREATING LIVER DISEASE” (Gilead Sciences, Inc., priority 2017, published 2018)
